Where a name gives a salt, the structure may show the parent alone. Read-outs that look alike come from different tables or passages of the source.
Legend:
Sclerotinia homoeocarpa [1] = assay: Broth protocol: control of dollar spot fungus with modified chlorins; assay type: cell-based; conditions: for inhibition at 10 µM / inhibition at 100 µM: Clarireedia homoeocarpa; for Inhibition, % (Dark) / Inhibition, % (Light): Broth data; for Inhibition, % (Light): light 1 hour, about 1000 μmol/m2/s PAR
Method: Broth protocol: control of dollar spot fungus (Sclerotinia homoeocarpa) with modified chlorins was assessed. Treatments were prepared in Phosphate Buffered Saline (PBS) in 24 well plates (in duplicates for light vs. dark incubation) at desired concentrations. Then, a 5 mm diameter plug of a Sclerotinia homoeocarpa isolate (3 isolates total tested) was inoculated into the PBS and incubated at 21° C. in the dark for 2 hours. After 2 hours, one of the 24 well plates (with isolates in triplicate) was left in the dark and one 24 well plate was placed under illumination for 1 hour (all at 21° C.). Following illumination, fungal plugs were removed from PBS, blotted dry on sterile filter paper and transferred to non-amended Potato Dextrose Agar (PDA). Radial growth of the fungus was monitored daily until the growth of S. homoeocarpa reached the edge of the Petri-dish. Illumination was provided by LED lights emitting about 1000 μmol/m2/s photosynthetically active radiation (PAR).

[2] = Method A: photostability in a non-hydrated state (solid state), dried films under LED light; assay type: physicochemical
Method: Fifty microlitres of each formulation was pipetted into 12 wells of a 96-well clear-bottom black microplate (Thomas Scientific, Swedesboro, N.J.) and dried into thin films using a dehydrator (Gourmia GFD1680) at a temperature of 45° C. for 3 h. At the beginning of the experiment, the microplate was placed under a Heliospectra RX30 LED light array (Heliospectra, San […], Calif.). The LED array was adjusted such that the microplates received on average 1300 μmol/m^2/s of light intensity. The microplate was tightly covered with aluminum foil and at select intervals peeled back to irradiate films with either 0 h, 24 h, 48 h or 72 h of light. […] An absorbance spectral scan was conducted on the microplate (350-750 nm) using a plate reader (Spectramax M2E, Molecular Devices, San Jose, Calif.) and the peak intensity was monitored at 24 h, 48 h and/or 72 h timepoints and compared with the corresponding 0 h timepoint to determine the degree of photodegradation. The % photosensitizer remaining after irradiation was calculated using the following equation: [formula] where Abst is the absorbance peak of the sample receiving t hours of light exposure; Abs0 is the absorbance peak of the sample receiving no light exposure. All data is expressed as mean±standard deviation.

[3] = Method B: photostability in solution (liquid state) under LED light; assay type: physicochemical
Method: Fifty microlitres of each formulation was pipetted into 12 wells of a 96-well clear-bottom black microplate (Thomas Scientific, Swedesboro, N.J.), followed by the addition of 50 μL dH2O. The sample was sealed with a microplate clear adhesive film to minimize water evaporation. At the beginning of experiment, the microplate was placed under a Heliospectra RX30 LED light array (Heliospectra, San […], Calif.). The LED array was adjusted such that the microplates received on average 1300 μmol/m^2/s of light intensity. […] The % photosensitizer remaining after irradiation was calculated using the following equation: [formula] where Abst is the absorbance peak of the sample receiving t hours of light exposure; Abs0 is the absorbance peak of the sample receiving no light exposure. All data is expressed as mean±standard deviation.

[4] = system: Colletotrichum orbiculare ATC20767 (Cgm); assay: Control of Colletotrichum orbiculare on Nicotiana benthamiana, film-forming formulations applied 48 h before inoculation; assay type: in vivo; conditions: host Nicotiana benthamiana, PVOH 89 kDa, >99% hydrolysis
Method: Control of the fungal plant pathogen Colletotrichum orbiculare ATC20767 (Cgm) on the host plant Nicotiana benthamiana following treatment with formulations containing Magnesium chlorophyllin, sodium salt with hydrogel polymer, polyvinylalcohol 89 kDa (99%+hydrolysis) and phenolic antioxidant vanillin were assessed. Treatments were applied to N. benthamiana plants approximately 48 h prior to inoculation to simulate photodegradation on a leaf surface. Subsequently, with a spore suspension of Cgm was applied to the leaves. Plants were then exposed to light for a 24-hour period followed by dark incubation until disease symptoms were evident on the water-treated control plants. Once disease symptoms were evident, lesions were counted, and leaf area measured in order to determine the number of lesions/cm^2 leaf area. Four replicate plants were used per treatment and plants were randomized under the light source. […]
Control of the fungal plant pathogen Colletotrichum orbiculare ATC20767 (Cgm) on the host plant Nicotiana benthamiana following treatment with formulations containing Magnesium chlorophyllin, sodium salt with hydrogel polymer, polyvinylalcohol 89 kDa (99%+hydrolysis) and phenolic antioxidant tannic acid were assessed. […] Once disease symptoms were evident, lesions were counted, and leaf area measured in order to determine the number of lesions/cm^2 leaf area. […]

[5] = system: Pseudomonas syringae v. tabacii; assay: Inhibition of P. syringae in host plant N. benthamiana by film-forming compositions; assay type: in vivo; conditions: host Nicotiana benthamiana, PVOH 89 kDa, >99% hydrolysis
Method: Two days prior to inoculation, chemical treatments were applied to N. benthamiana plants at the 5-6 leaf stage until run off using a handheld spray bottle delivering a fine spray. Plants sprayed with water were used for Control. Immediately after treatment, plants were randomly placed on a shelf and exposed to LED lights emitting approximately 450 μmol/m2/s photo-synthetically active radiation (PAR) for a 12 h light/12 h dark photoperiod. For inoculation, Pst from a glycerol stock was cultured on Tryptic Soy Agar (TSA) and incubated overnight at 30° C. Bacterial cells were collected from the overnight culture, suspended in de-ionized water and diluted to 1×10^8 CFU/ml followed by the addition of 0.02% (v/v) Silwet L-77. Inoculum was then applied to plants until runoff and the plants covered with transparent plastic domes to maintain 100% relative humidity.
Inoculated plants were randomly placed on a shelf in the Growth room which was maintained at 24° C., and were exposed to a combination of fluorescent and LED lights emitting approximately 250 μmol/m^2/s PAR for an 16 h light/8 h dark photoperiod for 7 days. Entire plants were assessed for disease severity using rating scale of 0-100%. Disease symptoms included yellow lesions, discoloration on foliage, leaf deformation and stunted growth. Four replications per treatment were used in the experiment.

[6] = Thermal stability of MgChln, 2 weeks at 54° C.; assay type: physicochemical; conditions: in dH2O, wrapped in aluminum foil, mean ± SD
Method: These samples were wrapped in aluminum foil and stored in a 54° C. oven for a period of 2 weeks. After the 2-week period, the samples were taken out of the 54° C. oven or -20° C. freezer and assayed using the UV-Visible plate reader (Spectramax M2E, Molecular Devices, San Jose, Calif.) with 12 technical replicates per sample. The degradation of […] as a result of storage at elevated temperature was determined by calculating the % photosensitizer remaining using the following equation: [formula] where Abst is the absorbance peak of the sample after incubation for 2 weeks at 54° C.; Abs0 is the absorbance peak of the sample at the start of experiment without being stored at 54° C. All data is expressed as mean±standard deviation.

Sclerotinia homoeocarpa [7] = assay: Agar protocol: control of dollar spot fungus with modified Ce6; assay type: cell-based; conditions: Agar data, 10 uM
Method: Agar protocol: control of dollar spot fungus (Sclerotinia homoeocarpa) with modified Ce6 was assessed. Treatments were amended into Potato Dextrose Agar (PDA) at desired concentrations. Then, a 5 mm diameter plug of a Sclerotinia homoeocarpa isolate (3 isolates total tested) was inoculated into the center of the amended Petri-dish and incubated at 21° C. in the dark for 24 hours. After 24 hours, one set of Petri-dishes (in triplicate) was left in the dark and one set was placed under illumination for the remainder of the experiment (all at 21° C.). Radial growth of the fungus was monitored daily until the growth of S. homoeocarpa on non-amended PDA reaches the edge of the Petri-dish. Illumination was provided by fluorescent lights emitting about 180 μmol/m2/s photosynthetically active radiation (PAR).

[8] = system: Pseudomonas syringae pv. tabaci; assay: In vitro photodynamic inactivation of Pseudomonas syringae pv. tabaci with modified Ce6; assay type: cell-based
Method: Experiments were conducted to evaluate control of the gram-negative bacterial plant pathogen Pseudomonas syringae pv. tabaci with modified Ce6. Treatments were prepared in Phosphate Buffered Saline (PBS) in 96 well plates at desired concentrations. A bacterial suspension was inoculated into the PBS and incubated at 28° C. in the dark for 30 min. After 30 min, the 96 well plate was placed under illumination for 1 hour (at 21° C.). A separate plate prepared at the same time was kept in the dark without illumination and served as dark control. Following illumination, bacterial suspensions were serially diluted and 10 μL of each dilution was spread uniformly on Tryptic Soy Agar (TSA) plates and placed in the dark in an incubator at 28° C. for 48 hours. After 48 hours, bacterial colonies were counted and results were log transformed (log colony forming units (CFU)/mL). The relative inactivation was determined by taking the difference between log CFU(PBS control) and log CFU (treatments). Sample Illumination was provided by LED lights (Heliospectra RX30) emitting about 1000 μmol/m^2/s photosynthetically active radiation (PAR).

[9] = system: Kentucky bluegrass (Poa pratensis); assay: Kentucky bluegrass tolerance to salt stress (turf quality); assay type: in vivo; conditions: 170 mM NaCl, 2 salt applications; scale of 1-9 (1=dead, 9=healthy); untreated control 5
Method: Kentucky bluegrass (Poa pratensis) was grown under greenhouse conditions for ˜3 weeks. After 3 weeks, plants were sprayed with formulations and allowed to sit for 24 hours, after which the pots were placed in a 170 mM NaCl solution until the soil was saturated. The salt application was repeated again 7 days later for a total of 2 salt applications. Salinity stress was evaluated based on a turf quality scale of 1-9; where 1=dead, brown turf; 6=minimally acceptable turf quality (based on standards for golf courses or sports fields); and 9=dense, dark green turf (healthy). Data are average of 5 replicates.

[10] = 1 h, read-out: Inhibition, % (Light)
[11] = various tetrapyrroles, PVOH 89 kDa, >99% hydrolysis and tannic acid, 72 h simulated sunlight
[12] = various tetrapyrroles, PVOH 89 kDa, >99% hydrolysis and tannic acid, 6 h simulated light

C=Cc1c(C)c2cc3nc(c(CC(=O)NCCOP(=O)(O)O)c4[nH]c(cc5nc(cc1[nH]2)C(C)=C5CC)c(C)c4C(=O)O)C(CCC(=O)O)C3C (stereo not drawn) [Ce6-mono-EP^15 amide octylammonium salt]
inhibition at 10 µM (Sclerotinia homoeocarpa [1]; [10]): 58% | inhibition at 100 µM (Sclerotinia homoeocarpa [1]; [10]): 71% | inhibition at 10 µM (Sclerotinia homoeocarpa [1]; read-out: Inhibition, % (Dark)): 3% | inhibition at 100 µM (Sclerotinia homoeocarpa [1]; read-out: Inhibition, % (Dark)): -5%

C=CC1=C(C)C2=CC3=NC(=C(CC(=O)[O-])C4=NC(=C(C)C4=C([O-])[O-])C=c4[n-]c(c(C)c4CC)=CC1=N2)C(CCC(=O)[O-])C3C.[H+].[H+].[H+].[Mg+2] (stereo not drawn) [MgChln, Magnesium chlorin e6]
% photosensitizer remaining at 72 h (solid state) ([2]; MgChln, PVOH 89 kDa, >99% hydrolysis, tannic acid, adjuvants, 72 h simulated sunlight): 41.2 ± 2.9% | % photosensitizer remaining at 72 h (solid state) ([2]; MgChln, PVOH 89 kDa, >99% hydrolysis, various antioxidants, 72 h simulated sunlight): 31.6 ± 2.3% | % photosensitizer remaining at 72 h (solid state) ([2]; MgChln, PVOH 89 kDa, >99% hydrolysis, dried film, 72 h light irradiation, mean ± SD): 46.0 ± 1.8% | % photosensitizer remaining at 72 h (solid state) ([2]; MgChln, PVOH 146 kDa, >99% hydrolysis, 72 h simulated sunlight, mean ± SD): 29.1 ± 2% | % photosensitizer remaining at 72 h (solid state) ([2]; MgChln, PVOH of varied molecular weight and degree of hydrolysis, 72 h simulated sunlight, mean ± SD): 45.2 ± 7.1% | % photosensitizer remaining at 72 h (solid state) ([2]; MgChln, various film-forming polymers and tannic acid, 72 h simulated sunlight): 42.4 ± 2.5% | % photosensitizer remaining at 6 h (liquid state) ([3]; MgChln, PVOH 89 kDa, >99% hydrolysis, tannic acid, adjuvants, 6 h simulated light): 31.5 ± 5.3% | % photosensitizer remaining at 6 h (liquid state) ([3]; MgChln, PVOH 89 kDa, >99% hydrolysis, various antioxidants, 6 h simulated light): 20.6 ± 3.9% | % photosensitizer remaining at 6 h (liquid state) ([3]; MgChln, PVOH 146 kDa, >99% hydrolysis, 6 h simulated sunlight, mean ± SD): 35.2 ± 2.1% | % photosensitizer remaining at 6 h (liquid state) ([3]; MgChln, PVOH of varied molecular weight and degree of hydrolysis, 6 h simulated sunlight, mean ± SD): 44.6 ± 9.6% | % photosensitizer remaining at 6 h (liquid state) ([3]; MgChln, various film-forming polymers and tannic acid, 6 h): 27.5 ± 1.8% | % inhibition ([4]; applied about 48 h prior to inoculation): 76% | % Disease inhibition ([4]; sprayed films irradiated 48 h prior to inoculation with fungal spores): 95.1% | % Disease inhibition ([5]; relative to water control): 45.3% | Disease severity, % Mean ([5]; sprayed two days prior to inoculation, rated 7 days after, scale 0-100%, control 80): 43.8% | % Photosensitizer remaining [6]: 62 ± 7%

Aluminum chlorin e6 [Aluminum Ce6Na3]
% photosensitizer remaining at 72 h (solid state) [2, 11]: 91.4 ± 5.5% | % photosensitizer remaining at 6 h (liquid state) [3, 12]: 3.9 ± 0.2%

Chlorin e6, trisodium salt [Ce6Na3, reference compound]
% photosensitizer remaining at 72 h (solid state) [2, 11]: 84.2 ± 7^ % | % photosensitizer remaining at 6 h (liquid state) [3, 12]: 19.4 ± 0.5% | Inhibition, % (Dark) (Sclerotinia homoeocarpa [7]; dark): 26% | Inhibition, % (Light) (Sclerotinia homoeocarpa [7]; light about 180 μmol/m2/s PAR): 74% | Inhibition, % (Dark) (Sclerotinia homoeocarpa [1]; 10 uM): −4% | Inhibition, % (Light) (Sclerotinia homoeocarpa [1]; 10 uM): 53% | Inhibition, % (Dark) (Sclerotinia homoeocarpa [1]; 100 uM): 16% | Inhibition, % (Light) (Sclerotinia homoeocarpa [1]; 100 uM): 66% | Relative Inactivation (log[CFUcontrol mL^−1] − log[CFUtreatment mL^−1]), Dark ([8]; dark control plate): −0.03 ± 0.13 log CFU mL^−1 | Relative Inactivation (log[CFUcontrol mL^−1] − log[CFUtreatment mL^−1]), Light ([8]; illumination 1 hour, about 1000 μmol/m^2/s PAR, where no colonies remained value set to 1 CFU/mL): 0.39 ± 0.29 log CFU mL^−1 | Turf Quality [9]: 6

Source: patent publication US20230128730A1, “OXYGEN IMPERMEABLE PORPHYRIN PHOTOSENSITIZER FILM COMPOSITION FOR APPLICATION TO PLANTS” (SUNCOR ENERGY INC., priority 2020, published 2023)
